Test results: PMC11939259, “Antiparasitic and Antifungal Activities of Cetyl-Maritima, a New N-Cetyl-Modified Maritima Derivative” (Antibiotics, 2025)
“And” between values parts separate entries of the source, which are not always exact repeats. Equal values may be shown once. Read-outs that look alike come from different tables or passages of the source.

Key:
[1] = tested on: M. mycetomatis fungal strain MM55; assay: M. mycetomatis MM55 in vitro susceptibility, MTS metabolic activity; type: cell-based, Madurella mycetomatis; conditions: for Metabolic activity upon treatment at 25 μM / Metabolic activity upon treatment at 100 μM: ± SD
Protocol: The M. mycetomatis MM55 isolate obtained from a patient and identified and maintained in the Erasmus Medical Centre, Rotterdam, The Netherlands, was applied for the investigation of the in vitro susceptibility of the test compounds as reported previously [94]. In short, the fungal isolate was cultured on Sabouraud agar for 2 weeks at 37 °C, after which the mycelium was transferred in colorless RPMI 1640 medium supplemented with L-glutamine (0.3 g/L; Capricorn-Scientific, Ebsdorfergrund, Germany), morpholinepropanesulfonic acid (MOPS, 20 mM, Sigma, St. Louis, MO, USA), and chloramphenicol (100 mg/L, Oxoid, Basingstroke, UK). The mycelium was sonicated for 10 s at 10 μm with a probe sonicator (Soniprep, Beun de Ronde, Abcoude, The Netherlands) to obtain a hyphal suspension, after which the hyphal suspension was cultured for another week at 37 °C. The suspension was then collected by centrifugation (5 min, 3400 rpm) and washed with PBS followed by the addition of fresh RPMI 1640 medium, after which the mycelia was again sonicated for 10 s at 10 μm with a probe sonicator. The hyphal suspension was diluted to a transmission of 70% at 660 nm (Novaspec II; Pharmacia Biotech, Uppsala, Sweden). Then, 100 μL of the suspension was added to each well of a 96-wells plate (Costar 3799, Fisher Scientific, Breda, The Netherlands) that contained 1 μL of each compound sample. Compounds were initially evaluated at concentrations of 100 μM and 25 μM.
For the final metabolic activity evaluation, a viability dye named MTS, 3-(4,5-dimethylthiazol-2-yl)-5-(3-carboxymethoxyphenyl)-2-(4-sulfophenyl)-2H-tetrazolium salt, was applied as described in a previous study [64]. The following formula was used: Percentage metabolic activity=Absorbance test490nm−Absorbance NC490nm/Absorbance GC490nm−Absorbance NC490nm∗100
The growth control (GC) refers to the fungal isolate only and indicates 100% metabolic activity.

[2] = tested on: eumycetoma; set-up: method as in PMID 38690871, PMID 38935904, PMID 39098321; conditions: eumycetoma patients, conditions of a clinical trial, combined with surgery; cited from earlier work
[3] = tested on: M. mycetomatis fungal strain MM55; set-up: method as in PMID 37067830; conditions: positive control, cited from earlier work
[4] = tested on: T. gondii RH strain tachyzoites; assay: T. gondii growth inhibition in infected Vero cells (infection index); type: cell-based, Toxoplasma gondii
Protocol: Cells of the Vero cell line (ATCC® CCL81™, Manassas, VA, USA) were used to cultivate T. gondii RH strain tachyzoites. The effects of test compounds on T. gondii growth were investigated according to previously published methods. Vero cells were maintained in complete RPMI 1640 medium supplemented with 10% heat-inactivated FBS, under a humidified atmosphere containing 5% CO2 at 37 °C. The cells were seeded in 96-well plates at a density of 5 × 10^3 cells/well (see also Figure S7) in 200 μL of RPMI 1640 medium and incubated at 37 °C with 5% CO2 for 24 h. Following incubation, the medium was discarded, and cells were washed with PBS. Subsequently, RPMI 1640 medium containing 2% FBS and T. gondii tachyzoites was added at a ratio of 5 parasite cells to 1 Vero cell. After 5 h incubation at 37 °C and 5% CO2, cells were washed with PBS and processed as outlined below.
Control: RPMI 1640 medium with 0.8% DMSO.
Experimental: RPMI 1640 medium containing test compounds (dissolved in DMSO) at concentrations of 90, 30, 10, 3.3, 1.1, 0.37, and 0.12 μg/mL. Atovaquone (ATO) was used as positive control.
Cells were incubated at 37 °C and 5% CO2 for 72 h, washed with PBS, fixed in 10% formalin, and stained with 1% toluidine blue. The infection index, defined as the number of infected cells out of 200 examined cells, was determined using an inverted photomicroscope.
The percentage of inhibition was calculated using the following equation:Inhibition (%) = [(I Control − I Experimental)/I Control] × 100 where “I Control” is the infection index of untreated cells, and “I Experimental” is the infection index of cells treated with test compounds.

[5] = tested on: Vero monkey kidney cells; assay: Vero cell cytotoxicity (MTT); type: cell-based; conditions: Primates, 72 h, ± S.D
Protocol: MTT assays were performed to assess the cytotoxicity of the test compounds. Vero cells and isolated macrophages were seeded in 96-well plates at a density of 5 × 10^3 cells per well in 200 μL of RPMI 1640 medium with 10% FBS and incubated at 37 °C with 5% CO2 for 24 h. After incubation, cells were washed with PBS and treated with test compounds at varying concentrations (90, 30, 10, 3.3, 1.1, 0.37, and 0.12 μg/mL) in 10% FBS medium for 72 h. Negative control wells contained cells treated with medium in 2% FBS without test compounds (see also raw data in Table S5). After treatment, the supernatant was removed, and 50 μL of RPMI 1640 medium containing 14 μL of MTT solution (5 mg/mL) was added. The cells were incubated for an additional 4 h. Following incubation, the supernatant was discarded, and 200 μL of DMSO was added to dissolve the formazan crystals. The absorbance was measured at 540 nm using a FLUOstar OPTIMA spectrophotometer (BMG LABTECH, Ortenberg, Germany). […] IC50 values were determined from three independent experiments.

[6] = tested on: L. major promastigotes; assay: L. major promastigote viability (MTT); type: cell-based; conditions: Leishmania major, 72 h, read-out: IC50 Promastigotes
[7] = tested on: L. major intramacrophageal amastigotes; assay: L. major intramacrophageal amastigote assay (Giemsa, infected macrophages); type: cell-based, Leishmania major; conditions: for IC50: Leishmania major, Macrophage, 72 h, read-out: IC50 Amastigotes
Protocol: Promastigotes of L. major were isolated from a patient in February 2016 and cultured at 26 °C in Schneider’s Drosophila medium (Invitrogen, Carlsbad, CA, USA) supplemented with 10% heat-inactivated fetal bovine serum (FBS, Invitrogen, USA) and antibiotics. Cultures were maintained in tissue culture flasks with weekly transfers. The promastigotes were cryopreserved in liquid N2 at a concentration of 3 × 10^6 parasites/mL. Virulent L. major parasites were maintained by serial passage in BALB/c mice through hind footpad injections of 1 × 10^6 stationary-phase promastigotes, and amastigotes were isolated after 7 weeks. Isolated amastigotes were converted to promastigotes by culturing at 26 °C in Schneider’s medium with antibiotics and 10% FBS. Amastigote-derived promastigotes, with fewer than five in vitro passages, were used for infection experiments.
(§1) For amastigote activity assays, peritoneal macrophages were collected from BALB/c mice (7 weeks old) by aspiration. Cells (5 × 10^4 cells/well) were seeded into 96-well plates (see also Figure S7) with phenol red-free RPMI 1640 medium containing 10% FBS and incubated at 37 °C with 5% CO2 for 4 h to allow adhesion. After discarding the medium and washing with PBS, 200 μL of L. major promastigotes in RPMI 1640 medium (10 promastigotes per macrophage) were added. Plates were incubated at 37 °C with 5% CO2 for 24 h to promote macrophage infection and amastigote differentiation. Unattached promastigotes were removed by washing with PBS (three times), and fresh phenol red-free RPMI 1640 medium containing test compounds (90, 30, 10, 3.3, 1.1, 0.37, and 0.12 μg/mL) was added. Cultures were incubated at 37 °C in 5% CO2 for 72 h. […] After incubation, cells were fixed and Giemsa-stained, and the percentage of infected macrophages was determined microscopically. IC50 values were calculated from three independent experiments. The isolation of parasites and macrophages was performed strictly following the rules and guidelines of the responsible committee of research ethics, Deanship of Scientific Research, Qassim University, Kingdom of Saudi Arabia (permission number 20-03-20).

[8] = tested on: peritoneal macrophages; assay: Macrophage cytotoxicity (MTT); type: cell-based, BALB/c mice; conditions: Mus musculus, 72 h, read-out: IC50 Macrophages
Protocol: as §1, with “The isolation of parasites and macrophages was performed strictly following the rules and guidelines of the responsible committee of research ethics, Deanship of Scientific Research, Qassim University, Kingdom of Saudi Arabia (permission number 20-03-20).” left out
MTT assays were performed to assess the cytotoxicity of the test compounds. […] The absorbance was measured at 540 nm using a FLUOstar OPTIMA spectrophotometer (BMG LABTECH, Ortenberg, Germany). […] IC50 values were determined from three independent experiments.

[9] = Madurella mycetomatis, read-out: IC50

What does the source list for `CCCCCCCCCCCCCCCC[n+]1ccccc1C` [C2PicBr]?
Metabolic activity upon treatment at 25 μM [1]: 8.7 ± 0.8%; Metabolic activity upon treatment at 100 μM [1]: 4.5 ± 0.8%; IC50 [1, 9]: 16.1 µM

For `CCCCCCCCCCCCCCCC[n+]1ccc(C)cc1` [C4PicBr], which “Metabolic activity upon treatment at 25 μM” value [1] is on record?
Its value is 18.4 ± 17.7%.

What about the “Metabolic activity upon treatment at 100 μM” value [1] of the same compound?
The value was 5.0 ± 0.8%.

What about the IC50 [1, 9] of the same compound?
The IC50 was 16.1 µM.

With “Dichlorido(η^6-p-cymene)[4-(4,8-dimethyl-3,7-nonadienyl)-pyridine]ruthenium(II) [Ru-Maritima]” as the compound, how does the “Metabolic activity upon treatment at 25 μM” value [1] read?
Its value is 155% and 155.7 ± 22.2%.

What about the “Metabolic activity upon treatment at 100 μM” value [1] of the same compound?
The value was −6.6 ± 12.2%.

With `C[C@@H](c1nc(-c2ccc(C#N)cc2)cs1)[C@@](Cn1cncn1)(OCOP(=O)(O)O)c1ccc(F)cc1F` [fosravuconazole] as the compound, how does the cure rate [2] read?
Its cure rate is greater than 70%.

What does the source list for `CCCCCCCCCCCCCCCC[n+]1ccc(/C=C/c2cc(OC)c(OC)c(OC)c2)cc1` [TMP-16]?
Metabolic activity upon treatment at 25 μM [1]: 13.3 ± 1.5%; Metabolic activity upon treatment at 100 μM [1]: 19.1 ± 1.1%; IC50 [1, 9]: 18.2 µM

With `CCCCCCCCCCCCCCCC[n+]1ccc(/C=C/c2ccc(N(C)C)cc2)cc1` [DAMS-16] as the compound, how does the “Metabolic activity upon treatment at 25 μM” value [1] read?
The value was 56.9 ± 69.3%.

What about the “Metabolic activity upon treatment at 100 μM” value [1] of the same compound?
The value was 25.4 ± 4.3%.

What about the IC50 [1, 9] of the same compound?
The IC50 was 16 µM.

Which results are given for `CCC(C)n1ncn(-c2ccc(N3CCN(c4ccc(OCC5COC(Cn6cncn6)(c6ccc(Cl)cc6Cl)O5)cc4)CC3)cc2)c1=O` (stereo not drawn) [Itraconazole, itraconazole]?
Metabolic activity upon treatment at 25 μM ([3]; 25 μM, ± SD): −1.04 ± 2.37%; Metabolic activity upon treatment at 100 μM ([3]; 100 μM, ± SD): 2.34 ± 4.49%; IC50 [3]: 0.09 µM; cure rate [2]: > 70%

With `CCCCCCCCCCCCCCCC[n+]1ccc(CCC=C(C)CCC=C(C)C)cc1.[Br-]` [Cetyl-Maritima, 1-Hexadecyl-4-(4,8-dimethyl-3,7-nonadienyl)-pyridinium Bromide] as the compound, how does the IC50 [1] read?
Its IC50 is 8.2 µM.

What about the “Metabolic activity upon treatment at 25 μM” value [1] of the same compound?
The value was 12.2 ± 6.9%.

And the “Metabolic activity upon treatment at 100 μM” value [1]?
The value was 13.1 ± 2.0%.

And the IC50 ([1]; Madurella mycetomatis)?
The IC50 was roughly 8 µM.

What about the “SI selectivity index (Vero/T. gondii)” value [4] of the same compound?
The value was 1.3.

And the IC50 ([4]; 72 h; ± S.D)?
Its IC50 is 8.6 ± 1.2 µM.

And the IC50 ([4]; Toxoplasma gondii, Vero, 72 h; ± S.D)?
Its IC50 is roughly 8 µM.

And the IC50 [5]?
Its IC50 is 11.4 ± 1.3 µM.

What about the IC50 [6] of the same compound?
Its IC50 is 1.5 ± 0.2 µM.

And the “SI selectivity index (macrophages/L. major amastigotes)” value [7]?
The value was 7.2.

What about the “SI selectivity index, Vero kidney cells vs L. major amastigotes” value [7] of the same compound?
The value was 19.

And the IC50 [7]?
The IC50 was 0.6 ± 0.2 µM.

What about the IC50 [8] of the same compound?
The IC50 was 4.3 ± 0.5 µM.

Which results are given for `CC(C)=CCCC(C)=CCCc1ccncc1` [Maritima, 4-(4,8-dimethyl-3,7-nonadienyl)-pyridine]?
Metabolic activity upon treatment at 25 μM [1]: 54% and 54.3 ± 7.5%; Metabolic activity upon treatment at 100 μM [1]: 13.8 ± 33.8%; IC50 ([4]; Toxoplasma gondii, Vero; 72 h; ± S.D): > 314 µM; IC50 [5]: > 314 µM; IC50 ([6]; ± S.D): > 314 µM; IC50 ([7]; intramacrophageal, ± S.D): > 314 µM; IC50 ([8]; ± S.D): > 314 µM
